Test results from PMC11457865, “The HIV latency reversing agent HODHBt inhibits the phosphatases PTPN1 and PTPN2” (JCI Insight, 2024).

Legend:
PTPN1 (PTP1B) = biological target: T1, PTPN1 (PTP1B) (Homo sapiens, UniProt P18031); assay: fluorogenic phosphatase assay with Lineweaver-Burk kinetics; also CETSA on purified catalytic domain, CD4 T cell lysates, and TPP in live PBMCs and K562 cells; type: biochemical
T1 construct: catalytic domain (fluorogenic PTP1B catalytic domain assay kit, BPS Bioscience 79764; purified catalytic domain 1-301 for CETSA)
T1 sequence (P18031 1-301): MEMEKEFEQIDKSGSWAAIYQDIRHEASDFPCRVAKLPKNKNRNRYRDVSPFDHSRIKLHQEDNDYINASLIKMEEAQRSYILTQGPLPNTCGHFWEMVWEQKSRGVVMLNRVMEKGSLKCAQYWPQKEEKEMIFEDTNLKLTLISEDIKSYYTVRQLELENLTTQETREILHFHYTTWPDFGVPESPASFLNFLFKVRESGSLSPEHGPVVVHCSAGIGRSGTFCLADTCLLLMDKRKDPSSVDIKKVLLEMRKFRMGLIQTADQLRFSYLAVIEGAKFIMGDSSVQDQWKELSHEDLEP

PTPN2 (TC-PTP) = biological target: T2, PTPN2 (TC-PTP) (Homo sapiens, UniProt P17706); assay: fluorogenic phosphatase assay with Lineweaver-Burk kinetics; also CETSA on purified catalytic domain (destabilization), CD4 T cell lysates, and TPP in live PBMCs and K562 cells; type: biochemical
T2 construct: catalytic domain (recombinant GST-tag TC-PTP, BPS Bioscience 30013)
T2 sequence (P17706 1-317 limits assumed): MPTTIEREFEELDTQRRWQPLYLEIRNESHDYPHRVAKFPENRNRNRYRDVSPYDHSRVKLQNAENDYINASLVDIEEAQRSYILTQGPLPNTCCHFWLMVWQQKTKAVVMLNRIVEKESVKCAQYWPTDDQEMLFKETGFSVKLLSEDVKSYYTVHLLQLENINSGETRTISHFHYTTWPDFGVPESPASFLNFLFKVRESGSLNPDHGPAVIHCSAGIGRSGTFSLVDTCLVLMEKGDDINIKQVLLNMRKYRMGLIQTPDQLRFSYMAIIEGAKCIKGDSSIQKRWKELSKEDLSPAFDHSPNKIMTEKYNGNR

- IC50 (PTPN1 (PTP1B)): 601 µM
- IC50 (PTPN2 (TC-PTP)): 544 µM
SMILES: O=c1c2ccccc2nnn1O [HODHBt, 3-Hydroxy-1,2,3-benzotriazin-4(3H)-one]
